Data published in patent US6274333A (Sanofi-Synthelabo, priority 1997, dated 2001).
Where two headings read alike, the source gives them in different places.

Experiments:
rNT-R2 receptor [1] = target: T1, rNT-R2 receptor (Rattus norvegicus, UniProt Q63384); assay: saturation binding of ^125 I-neurotensin to rNT-R2 expressed in COS cells; settings: Scatchard analysis
T1 construct: rNT-R2 receptor expressed in COS-3 cells after transfection of the cloned cDNA; expressed in transfected cells; vector pSVL-rNT-R2
T1 sequence (Q63384 1-416): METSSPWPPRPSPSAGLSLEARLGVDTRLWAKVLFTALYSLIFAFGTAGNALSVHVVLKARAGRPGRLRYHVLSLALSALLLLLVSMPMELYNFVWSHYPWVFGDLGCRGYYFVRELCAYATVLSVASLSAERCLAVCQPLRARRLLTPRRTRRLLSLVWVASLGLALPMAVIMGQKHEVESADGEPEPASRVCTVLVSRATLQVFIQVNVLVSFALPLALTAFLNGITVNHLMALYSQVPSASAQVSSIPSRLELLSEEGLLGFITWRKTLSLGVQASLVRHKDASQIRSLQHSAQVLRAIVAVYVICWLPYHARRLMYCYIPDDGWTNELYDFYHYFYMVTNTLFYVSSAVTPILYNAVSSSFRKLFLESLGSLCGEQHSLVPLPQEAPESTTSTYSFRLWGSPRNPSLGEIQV
Protocol: BSA (bovine serum albumin), PMSF (phenylmethylsulphonyl fluoride) and 1,10-phenanthroline are marketed by Sigma. The selective, non-peptide antagonist SR 48692 was synthesized by Sanofi Recherche, France. Levocabastine was obtained from Janssen Pharmaceutica.
(§1) The pharmacological characterization was carried out using […] cells transfected with pSVL-rNT-R2 recombinant vector. Three days after transfection, the cell monolayers were washed twice with 50 mM Tris-HCl pH 7.5, 0.1% BSA, 0.1% NaN3, 1 mM 1,10-phenanthroline (binding buffer) before binding to the radioligand.
Saturation experiments were carried out in 1 ml of binding buffer containing ^125 I-neurotensin over a range from 0.05 to 14.5 nM. After incubation for one hour at room temperature, the medium was aspirated and the cell monolayers were washed twice with the incubation buffer. Finally, the cells were solubilized with 1 ml of 1N NaOH and the bound radioactivity was evaluated. The non-specific binding was defined as being the binding in the presence of a (500-fold) excess of unlabelled ligand and, under these conditions, was less than 1% of the total radioactivity.

[2] = tested on: untransfected cells, or cells transfected with the DNA vector alone; assay: binding of radiolabelled neurotensin to untransfected or vector-transfected COS cells
rNT-R2 receptor [3] = target: T1, rNT-R2 receptor; assay: displacement of ^125 I-neurotensin from rNT-R2 expressed in COS cells; assay type: binding
Protocol: BSA (bovine serum albumin), PMSF (phenylmethylsulphonyl fluoride) and 1,10-phenanthroline are marketed by Sigma. […] Levocabastine was obtained from Janssen Pharmaceutica.
as §1
After incubation for one hour at room temperature, the medium was aspirated and the cell monolayers were washed twice with the incubation buffer. Finally, the cells were solubilized with 1 ml of 1N NaOH and the bound radioactivity was evaluated.

hNT-R2 [4] = target: T2, hNT-R2 (Homo sapiens, UniProt O95665); assay: microphysiometry (Cytosensor) with CHO 2076.62 (hNT-R2) cells; assay type: cell-based
Protocol: The microphysiometry experiments were carried out with the Cytosensor Microphysiometer (Molecular Devices, Menlo Park, Calif.). Each chamber of the instrument containing 3×10^5 cells was perfused with DMEM medium (Sigma, St. Louis, Mo.) containing 40 mM NaCl at 37° C. The rate of acidification was measured every 60 seconds (flowrate […]). 15-second injections of agonists were carried out. For the inhibition experiments, cells were exposed to the antagonists for 30 minutes before being perfused with the agonist.

hNT-R2 [5] = target: T2, hNT-R2; assay: intracellular Ca^2+ concentration in CHO-2076.62 (hNT-R2) line; assay type: cell-based; settings: same response in the absence of extracellular calcium
Excerpt: In principle, this increase in the concentration of intracellular calcium ions is due to the release of internal reservoirs and not to the influx of extracellular calcium since the same response was found in the absence of extracellular calcium.

cloned receptor = settings: cited from earlier work
[6] = tested on: hypothermia induced by NT; settings: mice; cited from earlier work
[7] = tested on: hypothermia induced by NT; settings: rats; cited from earlier work
analgesia induced by NT [8] = settings: mice; cited from earlier work
analgesia induced by NT [9] = settings: rats; cited from earlier work
hNT-R2 [10] = target: T2, hNT-R2; assay: inositol phosphate (IP3) production in CHO-2076.62 (hNT-R2) line; assay type: cell-based
Excerpt: The CHO-2076.62 (hNT-R2) line was used to study the signalization mechanisms involved.

HT29 cells = settings: antagonism of neurotensin effect in vitro, read-out: IC50, formation of IP1 in HT29 cells; cited from earlier work
NT-1R = settings: CHO cells transfected with NT-1R; cited from earlier work
type-1 receptor = settings: cited from earlier work
[11] = tested on: release of acetylcholine in rat striatum; settings: cited from earlier work
rotation in mice = settings: cited from earlier work
[12] = 0.2 nM ^125 I-neurotensin, rNT-R2 in COS cells, read-out: IC50 (apparent), competition with ^125 I-neurotensin
[13] = binding with the type-1 receptor

T2 sequence (O95665 whole entry A54V, the tested form may be a part): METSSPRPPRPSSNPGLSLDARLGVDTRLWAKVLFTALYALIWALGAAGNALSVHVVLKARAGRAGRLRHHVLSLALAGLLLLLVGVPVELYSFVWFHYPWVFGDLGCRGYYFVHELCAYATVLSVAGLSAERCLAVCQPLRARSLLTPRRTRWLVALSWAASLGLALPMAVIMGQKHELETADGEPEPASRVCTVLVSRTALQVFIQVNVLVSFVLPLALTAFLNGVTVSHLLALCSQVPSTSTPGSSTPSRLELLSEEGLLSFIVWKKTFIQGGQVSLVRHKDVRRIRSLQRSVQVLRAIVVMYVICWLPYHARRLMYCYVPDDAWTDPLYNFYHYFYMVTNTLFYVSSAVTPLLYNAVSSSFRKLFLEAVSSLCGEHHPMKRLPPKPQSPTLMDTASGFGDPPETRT

Compound: ^125 I-neurotensin: ^125 I-[Tyr^3 ]-labelled neurotensin marketed by NEN
- binding capacity (Bmax) (rNT-R2 receptor [1]): 180,000±3000 sites per cell
- binding to untransfected cells or cells transfected with vector alone [2]: did not bind

Compound: COc1cccc(OC)c1-c1cc(C(=O)NC2(C(=O)O)C3CC4CC(C3)CC2C4)nn1-c1ccnc2cc(Cl)ccc12 (centres unmarked) [SR 48692, {2-[(1-(7-chloro-4-quinolinyl)-5-(2,6-di-methoxyphenyl)pyrazol-3-yl)carbonylamino]tricyclo-(3.3.1.1.3.7)decane-2-carboxylic} acid]
- IC50 (rNT-R2 receptor [3]; [12]): 22.5 nM
- inhibition of the agonist effect of SR142948 (hNT-R2 [4]; CHO 2076.62 (hNT-R2), SR48692 at doses at which there is no agonist effect): antagonized
- relative effectiveness at inhibiting the effect of SR142948 (hNT-R2 [4]; inhibition curves, SR48692 versus neurotensin): more effective than neurotensin
- intracellular concentration of Ca^2+ response (hNT-R2 [5]): significant response
- inhibition of the binding of NT to the cloned receptor (cloned receptor): inhibits the binding of NT to the cloned receptor
- effect on hypothermia induced by NT [6]: insensitive
- effect on hypothermia induced by NT [7]: insensitive
- effect on analgesia induced by NT (analgesia induced by NT [8]): insensitive
- effect on analgesia induced by NT (analgesia induced by NT [9]): insensitive

Compound: C[C@@H]1CN([C@H]2CC[C@](C#N)(c3ccc(F)cc3)CC2)CC[C@]1(C(=O)O)c1ccccc1 [levocabastine]
- IC50 (rNT-R2 receptor [3]): 10 nM

Compound: COc1cccc(OC)c1-c1cc(C(=O)NC2(C(=O)O)C3CC4CC(C3)CC2C4)nn1-c1ccc(C(=O)N(C)CCCN(C)C)cc1C(C)C (centres unmarked) [SR142948]
- increase in IP3 (hNT-R2 [10]): slight and transient (20-second) increase
- intracellular concentration of Ca^2+ response (hNT-R2 [5]): significant response

Compound: COc1cccc(OC)c1-c1cc(C(=O)NC2(C(=O)O)C3CC4CC(C3)CC2C4)nn1-c1ccc(C(=O)N(C)CCCN(C)C)cc1C(C)C.Cl (centres unmarked) [SR 142948 A, 2-{(5-(2,6-dimethoxyphenyl)-1-(4-(N-(3-dimethylamino-propyl)-N-methylcarbamoyl)-2-isopropylphenyl)-1H-pyrazole-3-carbonyl)amino}adamantane-2-carboxylic acid hydrochloride]
- IC50 (HT29 cells): 3.9 nM
- antagonism of neurotensin mobilization of intracellular calcium ions (NT-1R): antagonizes
- displacement of [^3 H]-SR 48692 (type-1 receptor; [13]): completely displaces
- displacement of [^125 I]-neurotensin (type-1 receptor; [13]): completely displaces
- affinity (type-1 receptor; type-1 receptor (Gully et al.)): of the order of a nanomole
- effect on hypothermia induced by NT [6]: antagonizes
- effect on hypothermia induced by NT [7]: antagonizes
- effect on analgesia induced by NT (analgesia induced by NT [8]): antagonizes
- effect on analgesia induced by NT (analgesia induced by NT [9]): antagonizes
- antagonism of neurotensin effect: release of acetylcholine [11]: antagonizes
- antagonism of neurotensin effect: rotation (rotation in mice): antagonizes

Compound: neuromedin N: ligand related to neurotensin, used as competitor (IPYIL; Neuromedin N; UniProt P30990 144-148, looked up)
- IC50 (rNT-R2 receptor [3]; [12]): 5.1 nM
